Measured values from the NIST ThermoML archive (doi:10.1016/j.jct.2006.09.012).
“And” between values parts separate entries of the source, which are not always exact repeats. Equal values may be shown once.

Settings: Gas, Buoyancy - hydrostatic balance with magnetic suspension - two sinkers

[He] [helium]
Settings	mass density
223.15 K, 1881.4 kPa	4.0102 kg/m3 and 4.0101 kg/m3
223.15 K, 1881.5 kPa	4.0102 kg/m3
223.15 K, 3970 kPa	8.3499 kg/m3
223.15 K, 3970.1 kPa	8.3501 kg/m3 and 8.3499 kg/m3 and 8.35 kg/m3
223.15 K, 3970.2 kPa	8.3499 kg/m3
223.15 K, 8133.1 kPa	16.67 kg/m3 and 16.6699 kg/m3 and 16.6701 kg/m3
223.15 K, 8133.2 kPa	16.6699 kg/m3 and 16.6701 kg/m3
223.15 K, 11880 kPa	23.8087 kg/m3 [middle of 5 runs]
223.15 K, 15827 kPa	30.9985 kg/m3
223.15 K, 15828 kPa	30.9993 kg/m3 [middle of 4 runs]
223.15 K, 19642 kPa	37.6507 kg/m3 [middle of 4 runs]
223.15 K, 26024 kPa	48.1863 kg/m3 and 48.1868 kg/m3
223.15 K, 26025 kPa	48.1881 kg/m3 and 48.1886 kg/m3 and 48.1887 kg/m3
223.15 K, 32014 kPa	57.4666 kg/m3
223.15 K, 32015 kPa	57.4668 kg/m3 and 57.4679 kg/m3
223.15 K, 32016 kPa	57.4684 kg/m3
223.15 K, 32017 kPa	57.4698 kg/m3
223.15 K, 38281 kPa	66.6119 kg/m3
223.15 K, 38282 kPa	66.6131 kg/m3 and 66.6126 kg/m3
223.15 K, 38283 kPa	66.614 kg/m3
223.15 K, 38284 kPa	66.616 kg/m3
253.15 K, 1929.2 kPa	3.629 kg/m3 and 3.6292 kg/m3
253.15 K, 1929.3 kPa	3.629 kg/m3 and 3.6294 kg/m3 and 3.6292 kg/m3
253.15 K, 3784.6 kPa	7.046 kg/m3 and 7.0462 kg/m3 and 7.0461 kg/m3
253.15 K, 7472.2 kPa	13.634 kg/m3
253.15 K, 7472.3 kPa	13.634 kg/m3
253.15 K, 11895 kPa	21.202 kg/m3 and 21.2018 kg/m3
253.15 K, 11896 kPa	21.2023 kg/m3 and 21.2022 kg/m3 and 21.2019 kg/m3
253.15 K, 15957 kPa	27.8548 kg/m3
253.15 K, 15958 kPa	27.8555 kg/m3 [middle of 4 runs]
253.15 K, 19865 kPa	34.0064 kg/m3 and 34.007 kg/m3
253.15 K, 19866 kPa	34.0081 kg/m3 and 34.0112 kg/m3
253.15 K, 25976 kPa	43.1785 kg/m3
253.15 K, 25977 kPa	43.179 kg/m3 and 43.1796 kg/m3
253.15 K, 25978 kPa	43.181 kg/m3 and 43.1801 kg/m3
253.15 K, 31938 kPa	51.6436 kg/m3 and 51.6443 kg/m3
253.15 K, 31940 kPa	51.647 kg/m3 and 51.6462 kg/m3 and 51.6454 kg/m3
253.15 K, 37813 kPa	59.5651 kg/m3
253.15 K, 37814 kPa	59.5664 kg/m3
253.15 K, 37815 kPa	59.5673 kg/m3
253.15 K, 37816 kPa	59.5686 kg/m3
253.15 K, 37817 kPa	59.5703 kg/m3
273.16 K, 935.8 kPa	1.6415 kg/m3
273.16 K, 935.9 kPa	1.6416 kg/m3 and 1.6415 kg/m3
273.16 K, 1881.8 kPa	3.2839 kg/m3
273.16 K, 1927.3 kPa	3.363 kg/m3 and 3.3629 kg/m3
273.16 K, 1927.4 kPa	3.3629 kg/m3 and 3.363 kg/m3
273.16 K, 1956.4 kPa	3.4135 kg/m3
273.16 K, 1956.5 kPa	3.4135 kg/m3 and 3.4134 kg/m3
273.16 K, 3626.6 kPa	6.273 kg/m3 and 6.2731 kg/m3
273.16 K, 3626.7 kPa	6.2732 kg/m3
273.16 K, 3626.8 kPa	6.2735 kg/m3
273.16 K, 3926.1 kPa	6.7802 kg/m3
273.16 K, 3926.2 kPa	6.7804 kg/m3 and 6.7802 kg/m3 and 6.7803 kg/m3
273.16 K, 3952.8 kPa	6.8257 kg/m3
273.16 K, 3952.9 kPa	6.8257 kg/m3
273.16 K, 3975.1 kPa	6.8634 kg/m3
273.16 K, 3975.2 kPa	6.8633 kg/m3 and 6.8635 kg/m3
273.16 K, 7764.9 kPa	13.1534 kg/m3
273.16 K, 7765.3 kPa	13.1538 kg/m3
273.16 K, 7765.7 kPa	13.1545 kg/m3
273.16 K, 7766.1 kPa	13.1555 kg/m3
273.16 K, 7766.6 kPa	13.1563 kg/m3
273.16 K, 7916 kPa	13.399 kg/m3
273.16 K, 7916.1 kPa	13.3992 kg/m3 and 13.399 kg/m3 and 13.3991 kg/m3
273.16 K, 7973.3 kPa	13.4919 kg/m3
273.16 K, 7973.4 kPa	13.4923 kg/m3 and 13.4922 kg/m3 and 13.4921 kg/m3
273.16 K, 8006.1 kPa	13.5452 kg/m3
273.16 K, 8006.2 kPa	13.5452 kg/m3
273.16 K, 11783 kPa	19.5712 kg/m3 [middle of 5 runs]
273.16 K, 11830 kPa	19.6435 kg/m3 [middle of 5 runs]
273.16 K, 11855 kPa	19.6832 kg/m3 [middle of 5 runs]
273.16 K, 12056 kPa	19.9988 kg/m3 [middle of 5 runs]
273.16 K, 15586 kPa	25.4233 kg/m3 and 25.4234 kg/m3
273.16 K, 15587 kPa	25.4235 kg/m3 and 25.4232 kg/m3
273.16 K, 15980 kPa	26.017 kg/m3 [middle of 5 runs]
273.16 K, 16077 kPa	26.1628 kg/m3 and 26.1631 kg/m3
273.16 K, 16078 kPa	26.164 kg/m3 and 26.1636 kg/m3 and 26.1633 kg/m3
273.16 K, 16090 kPa	26.1822 kg/m3 [middle of 5 runs]
273.16 K, 19645 kPa	31.445 kg/m3 [middle of 4 runs]
273.16 K, 19708 kPa	31.5381 kg/m3 and 31.5379 kg/m3
273.16 K, 19709 kPa	31.5382 kg/m3 and 31.5385 kg/m3 and 31.5386 kg/m3
273.16 K, 19869 kPa	31.7712 kg/m3 and 31.7709 kg/m3
273.16 K, 19870 kPa	31.7727 kg/m3 and 31.7718 kg/m3 and 31.7722 kg/m3
273.16 K, 20242 kPa	32.3124 kg/m3 [middle of 4 runs]
273.16 K, 20243 kPa	32.314 kg/m3
273.16 K, 25434 kPa	39.6666 kg/m3 and 39.6662 kg/m3 and 39.6672 kg/m3
273.16 K, 25435 kPa	39.6682 kg/m3 and 39.6678 kg/m3
273.16 K, 25464 kPa	39.7083 kg/m3
273.16 K, 25465 kPa	39.7092 kg/m3
273.16 K, 25466 kPa	39.7107 kg/m3 and 39.7113 kg/m3 and 39.7099 kg/m3
273.16 K, 25915 kPa	40.3302 kg/m3 and 40.3307 kg/m3 and 40.3313 kg/m3
273.16 K, 25916 kPa	40.3324 kg/m3 and 40.3317 kg/m3
273.16 K, 25964 kPa	40.3998 kg/m3
273.16 K, 25965 kPa	40.4011 kg/m3 and 40.4013 kg/m3
273.16 K, 25966 kPa	40.402 kg/m3
273.16 K, 31576 kPa	47.9567 kg/m3
